Where two headings read alike, the source gives them in different places.
Assays:
Luc+ HEPG2 xenograft = assay: In vivo efficacy, xenograft tumor growth; set-up: species or system NMRI nude mice; conditions: 10 mg/kg daily subcutaneous
Method: Twenty-five percent buffered Hydroxy Propyl beta Cyclodextrin (HPbCD) was prepared from Hydroxy Propyl beta Cyclodextrin (Roquette, Lestrem, France), EDTA solution and phosphate buffer at a pH of 7.4, filtered with a […] (VWR, Cat# 28145-483, Radnor, PA, USA) and stored at 4 °C. NV651 was prepared at a concentration of 10 mg/kg with 25% buffered HPbCD (vehicle). NV651 solution was sonicated for 30 min in a water bath sonicator (Bioruptor, Diagenode, Denville, NJ, USA) and shaken for up to an hour, followed by a secondary sterilization with a 0.2-µm filter. NV651 solution was stored at 4 °C up to 2 weeks, with stability confirmed up to 3 weeks.
HEPG2 cells were transduced with RediFect Red-FLuc-GFP (Perkin Elmer, Cat# CLS960003, Waltham, MA, USA) with a MOI = 3 and sorted for GFP^+ in a FACSAria III (BD Biosciences, Franklin Lakes, NJ, USA). […] Cell viability and a percentage of the GFP^+ cells were analyzed before the start of the in vivo experiment with a BD FACSverse cytometer (BD Biosciences, Franklin Lakes, NJ, USA). […]
Tumor growth was assessed with an in vivo imaging system (IVIS) one week after the injection of the cells. […] Body weights were measured at time 0 of the treatment and twice a week after the beginning of the treatment. […] Tumor growth was analyzed for up to 3 weeks. […]

HUH7 = assay: Mitotic quantification by immunofluorescence; type: cell-based, human; conditions: 10 or 100 nM, 48 h
Method: HUH7 cells were seeded at a concentration of 4.5 × 10^4 cells/well in a 6-well plate containing coverslips, followed by the treatment of NV651 at 10 or 100 nM or the equivalent volume in DMSO. After 48 h, samples were fixed with 4% PFA (Histolab, Cat# 02176, Gothenburg, Sweden) and permeabilized with 0.1% Triton x-100 (Sigma-Aldrich, Cat# X100-500ML, St. Louis, MO, USA) diluted in PBS. Samples were stained with 1-µg/mL of rat anti-tubulin (Abcam, Cat# ab6161, Cambridge, UK) for one hour at room temperature. Lastly, DAPI and secondary antibody goat anti-rat IgG AF546 conjugate (Invitrogen, Cat# A11081, Waltham, MA, USA) were added. Coverslips were mounted on glass slides adding fluorescent mounting media (Dako, Agilent, Santa Clara, CA, USA). Thirteen pictures at 10× were taken with a Zeiss Confocal microscope and quantified for the number of mitotic cells in relation to the total number of cells with ImageJ.

[1] = test system: primary human hepatocytes; assay: Cell health parameters by fluorescent imaging (ArrayScan); type: cell-based; conditions: for AC50: Hepatocyte
Method: This experiment was performed in Cyprotex (Watertown, MA, USA). Cryopreserved Primary human hepatocytes plated on 384 black-well plate cells were dosed with NV651 at a range of concentrations (0.195, 0.391, 0.781, 1.56, 3.13, 6.25, 12.5, 25, 50 and 100 µM). At the end of the incubation period (24 or 48 h), several health parameters were analyzed to evaluate the potential cytotoxicity of NV651 in primary human hepatocytes, including the total cell count with Hoechst staining and PI subtraction (a nonpermeable dye to quantify dead cells), nuclear intensity, Glutathione content (GSH), mitochondrial membrane potential, reactive oxygen species (ROS), steatosis, nuclear size and DNA structure. Plates were then scanned using an automated fluorescent cellular imager, ArrayScan (Thermo Scientific Cellomics).

[2] = Pharmacokinetics single oral administration, blood and liver; type: in vivo; conditions: CD1 mice, 10 mg/kg PO; for Tmax: male, mouse
Method: These experiments were performed by Shanghai ChemPartner Co., Ltd. (Shanghai, China) following the guidance described above. Twelve CD1 male mice with a weight between 28–30 g were purchased from SLAC Laboratory Animal Co. Ltd. (Shanghai, China). NV651 was diluted in 5% ethanol, 5% Cremophor EL and 90% saline. A single 10-mg/kg dose of NV651 was given orally (PO). […] At the selected time points, 30 µL of the blood samples were taken via face glass insert or cardiac puncture and placed into K2EDTA tubes. Tissues were terminal-collected at the designated time points. Thirty microliters of blood or liver samples were mixed with 100-µL Pierce Acetonitrile (ACN, Thermo Fisher Scientific, Waltham, MA, USA) containing 20-ng/mL IS (702) used as the internal standard. An aliquot of 10-µL supernatant was injected for LC-MS/MS analysis using LCMSMS-003 (API4000).

[3] = Body weight during xenograft treatment; type: in vivo, NMRI nude mice; conditions: 10 mg/kg daily subcutaneous; 3 weeks
Method: HEPG2 cells were transduced with RediFect Red-FLuc-GFP (Perkin Elmer, Cat# CLS960003, Waltham, MA, USA) with a MOI = 3 and sorted for GFP^+ in a FACSAria III (BD Biosciences, Franklin Lakes, NJ, USA). GFP^+Luciferase (Luc)^+ HEPG2 cells were confirmed to be negative for mycoplasma with the MycoAlert^TM Mycoplasma Detection Kit (Lonza, Cat# LT07-418, Basel, Switzerland). Cell viability and a percentage of the GFP^+ cells were analyzed before the start of the in vivo experiment with a BD FACSverse cytometer (BD Biosciences, Franklin Lakes, NJ, USA). Twenty NMRI nude female mice (6–8 weeks old) were injected in one flank with 1 million cells suspended in PBS with 50% Matrigel (Corning, Cat# 354230, Corning, NY, USA) in a total volume of 200 µL. […]
Tumor growth was assessed with an in vivo imaging system (IVIS) one week after the injection of the cells. […] Body weights were measured at time 0 of the treatment and twice a week after the beginning of the treatment. […] Tumor growth was analyzed for up to 3 weeks. BLI signal intensity was quantified in total flux (photons/s) after deducting the average background signal from the measurement region of interest (ROI) around the tumor area using live image analysis software (PerkinElmer, Waltham, MA, USA).

Q: Which “luminescence signal (tumor growth, IVIS) vs vehicle” value (Luc+ HEPG2 xenograft; after 3 weeks of treatment) does the source give for `CC(=O)CCC1C(=O)NC(C(C)C)C(=O)NC(Cc2cc(O)cc(F)c2)C(=O)N2CCCC(N2)C(=O)OC(C(C)=CC=CC(=O)OC(C)(C)C)CC=CC=CC(O)C(C)C1O` (centres unmarked) [NV651] here?
A: The value was “significantly reduced”.

Q: What about the “tumor growth by caliper measurements vs vehicle” value (Luc+ HEPG2 xenograft; up to 3 weeks) of the same compound?
A: Its value is “reduced tumor growth”.

Q: And the “number of mitotic counts” value (HUH7)?
A: Its value is “increase in the number of mitotic counts”.

Q: And the “MEC, Glutathione content” value ([1]; 24 h)?
A: Its value is 2.62 µM.

Q: And the “MEC, Mitochondrial Membrane potential” value ([1]; 24 h)?
A: Its value is 12.40 µM.

Q: And the “MEC, Nuclear intensity” value ([1]; 24 h)?
A: The value was 8.90 µM.

Q: What about the “MEC, ROS” value ([1]; 24 h) of the same compound?
A: The value was 6.43 µM.

Q: And the “MEC, Cell count (PI corrected)” value ([1]; 48 h)?
A: Its value is 6.14 µM.

Q: And the “MEC, DNA structure” value ([1]; 48 h)?
A: Its value is 10.90 µM.

Q: What about the “MEC, Nuclear size” value ([1]; 48 h) of the same compound?
A: The value was 18.10 µM.

Q: And the “MEC, Steatosis” value ([1]; 48 h)?
A: The value was 6.81 µM.

Q: What about the AC50 ([1]; 24 h, read-out: AC50, Glutathione content) of the same compound?
A: Its AC50 is 10.9 µM.

Q: And the AC50 ([1]; 24 h, read-out: AC50, Mitochondrial Membrane potential)?
A: Its AC50 is 14.2 µM.

Q: What about the AC50 ([1]; 24 h, read-out: AC50, Nuclear intensity) of the same compound?
A: The AC50 was 8.94 µM.

Q: What about the AC50 ([1]; 24 h, read-out: AC50, ROS) of the same compound?
A: Its AC50 is 8.17 µM.

Q: And the AC50 ([1]; 48 h, read-out: AC50, Cell count (PI corrected))?
A: The AC50 was 13.9 µM.

Q: And the AC50 ([1]; 48 h, read-out: AC50, DNA structure)?
A: Its AC50 is 34.4 µM.

Q: And the AC50 ([1]; 48 h, read-out: AC50, Nuclear size)?
A: The AC50 was 21.5 µM.

Q: What about the AC50 ([1]; 48 h, read-out: AC50, Steatosis) of the same compound?
A: The AC50 was 39 µM.

Q: And the “level in liver relative to blood” value ([2]; 24 h after treatment)?
A: Its value is “three-fold higher level in the liver than blood”.

Q: What about the Tmax ([2]; blood, read-out: Tmax in blood) of the same compound?
A: Its Tmax is 1 h.

Q: And the Tmax ([2]; liver, read-out: Tmax in liver)?
A: Its Tmax is 1 h.

Q: What about the body weight [3] of the same compound?
A: Its body weight is “no significant changes”.

From article PMC8234462, “Novel Cyclophilin Inhibitor Decreases Cell Proliferation and Tumor Growth in Models of Hepatocellular Carcinoma” (Cancers, 2021)
